Data on three compounds can be found in patent publication US8686043B2, “Heterocyclic sulfonamides, uses and pharmaceutical compositions thereof” (Pfizer Inc., priority 2009, dated 2014).

The structures appear in SMILES notation.

The assay has as its system AMPA receptors. The experiment in a line: AMPA ES Cell FLIPR Screen (AMPA Potentiator Assay). Type of assay: cell-based, murine. To be noted: ES cell-derived neurons, FLIPR (Fluo-4), 32 μM AMPA challenge; values marked * are the geometric mean of 2-5 EC50 determinations. The source says:
Growth and Maintenance of ES Cells
Murine ES cell line E14, with a targeted mutation in the Sox1 gene and a neuroectodermal marker that offers G418 resistance when the Sox1 gene is expressed (Stem Cell Sciences, West Mains Road, Edinburgh, Scotland EH9 3JQ) may be used in all experiments. ES cells may be maintained undifferentiated as previously described (Methods For The Isolation And Maintenance Of Murine Embryonic Stem Cells; Roach-M-L, McNeish-J-D., Methods in Molecular Biology, 185, 1-16 (2002)). Briefly, ES cells may be grown in stem cell culture media comprising a base medium of Knockout™ D-MEM (Invitrogen 5791 Van Allen Way, Carlsbad, Calif. USA 92008), supplemented with 15% ES qualified Fetal Bovine Serum (FBS) (Invitrogen), 0.2 mM L-Glutamine (Invitrogen), 0.1 mM MEM non-essential amino acids (Invitrogen), 30 μg/ml Gentamicin […] (Invitrogen), 1000 U/ml ESGRO™ (CHEMICON International, Inc., 28820 Single Oak Drive, Temecula, Calif. 92590) and 0.1 mM 2-mercaptoethanol (Sigma, 3050 Spruce St., St. Louis, Mo. 63103). ES cells may then be plated on gelatin-coated dishes (BD Biosciences, 2350 Qume Drive, San Jose, Calif. 95131), wherein the media is changed daily and the cells dissociated with 0.05% Trypsin EDTA (Invitrogen) every other day.
Neural In Vitro Differentiation of ES Cells
Embryoid Body Formation: Prior to embryoid body (EB) formation the ES cells may be weaned from FBS onto Knockout Serum Replacement™ (KSR) (Invitrogen). To form EBs, ES cells may be dissociated into a single cell suspension, then 3×10^6 cells plated in bacteriology dishes (Nunc 4014) and grown as a suspension culture in NeuroEB-I medium that consisted of Knockout™ D-MEM (Invitrogen), supplemented with 10% KSR (Invitrogen), 0.2 mM L-Glutamine (Invitrogen), 0.1 mM MEM non-essential amino acids (Invitrogen), 30 μg/ml Gentamicin (Invitrogen), 1000 U/ml ESGRO™ (CHEMICON International, Inc.), 0.1 mM 2-mercaptoethanol (Sigma) and 150 ng/ml Transferrin (Invitrogen). The plates may then be put on a Stovall Belly Button™ shaker in an atmospheric oxygen incubator. The media may be changed on day 2 of EB formation with NeuroEB-I and on day 4 with NeuroEB-II (NeuroEB-I plus 1 μg/ml mNoggin (R&D Systems, 614 McKinley Place N.E. Minneapolis, Minn. 55413)
Neuronal Precursor Selection and Expansion: On day 5 of EB formation, EBs may be dissociated with 0.05% Trypsin EDTA, and 4×10^6 cells/100 mm dish may then be plated on Laminin coated tissue culture dishes in NeuroEB-II-G418 medium that consisted of a base medium of a 1:1 mixture of D-MEM/F12 supplemented with N2 supplements and NeuroBasal Medium supplemented with B27(I ASSUME THIS IS THE VITAMIN) supplement and 0.1 mM L-Glutamine (all from Invitrogen). The base medium may then be supplemented with 10 ng/ml bFGF (Invitrogen), 1 μg/ml mNoggin, 500 ng/ml SHH-N (IS THIS SONIC HEDGEHOG FROM ProSpecBio Rehovot Science Park, P.O. BOX 398, Rehovot 76103, Israel), 100 ng/ml FGF-8b (R&D Systems), 1 μg/ml Laminin and 200 μg/ml G418 (Invitrogen) for selection of neuronal precursors expressing Sox-1. The plates may then be put in an incubator containing 2% oxygen and maintained in these conditions. During the 6-day selection period, the NeuroEB-II ([…]) media should be changed daily. On day 6, the surviving neuronal precursor foci may then be dissociated with 0.05% Trypsin EDTA and the cells plated at a density of 1.5×10^6 cells/100 mm Laminin coated dish in Neuroll ([…])-G418 medium. The cells may then be dissociated every other day for expansion, and prepared for cryopreservation at passage 3 or 4. The cryopreservation medium typically contains 50% KSR, 10% dimethyl sulfoxide (DMSO) (Sigma) and 40% Neurol([…])-G418 medium. Neuronal precursors may be cryopreserved at a concentration of 4×10^6 cells/ml and 1 ml/cryovial in a controlled rate freezer overnight then transferred to an ultra-low freezer or liquid nitrogen for long-term storage. […]
As for `CC(C)S(=O)(=O)N[C@H]1CCCC[C@H]1Oc1ccc(-c2ccccc2OC(F)(F)F)nc1` [Example 41, N-[(1S,2R)-2-({6-[2-(trifluoromethoxy)phenyl]pyridin-3-yl}oxy)cyclohexyl] propane-2-sulfonamide], the EC50 is 331 nM.

`CC(C)S(=O)(=O)N[C@H]1CCCC[C@H]1Oc1ccc(-c2ccc(C#N)s2)nc1` [Example 42, N-[(1S,2R)-2-{[6-(5-cyano-2-thienylpyridin)-3-yl]oxy}cyclohexyl] propane-2-sulfonamide]: the EC50 amounted to 2780 nM. To `CC(C)S(=O)(=O)N[C@H]1CCCC[C@H]1Oc1ccc(N2CCCCC2)cc1` [Example 54, N-[(1S,2R)-2-(4-piperidin-1-ylphenoxy)cyclohexyl]pro-pane-2-sulfonamide] belongs 503 nM.

Usually EC50 stands for the concentration giving half of the maximal effect.
